Usually EC50 stands for the midpoint of the concentration-response curve. Broadly, the CC50 is the concentration that lowers cell viability or growth by half. Low values mean greater toxicity to the cells, high ones lower toxicity to the cells.

For data set [1], the system named is VZV-ORF57-Luc. The data set is described as follows: Antiviral activity in ARPE-19 cells infected with VZV-ORF57-Luc. The note with it: for in vitro anti-VZV activity (in words): VZV-ORF57-Luc; for EC50: read-out: EC50 against VZV-ORF57-Luc. It counts as cell-based, Varicella-zoster virus. As for the experimental part: To enhance the antiviral activity octadecyloxyethyl-L-BHDU (ODE-L-BHDU, 5) and hexadecyloxypropyl-L-BHDU (HDP-L-BHDU, 6), POM-L-BHDU (8), and POC-L-BDHU (14) (FIGS. 1-3, Schemes 1-3) prodrugs were synthesized with modifications to increase bioavailability and cell penetration. Their antiviral activity was evaluated in ARPE-19 cells infected with VZV-ORF57-Luc, a new reporter virus.

Data set [2] has as its system human fibroblast (HFFs) cells. It counts as cell-based. As for the experimental part:
The cellular toxicity of synthesized analogs was determined on low passage of human fibroblast (HFFs) cells by performing 72 h of neutral red dye uptake and MTT cell proliferation assays.

Data set [3] deals with VZV-ORF57-Luc. The data set is described as follows: NuSkin mouse model of VZV replication (adult human skin xenografts), bioluminescence imaging. Type of data set: in vivo, Athymic Nude mice. The note with it: for in vivo antiviral activity against VZV (in words): s.c. once daily days 3-9 post-infection, equimolar to cidofovir 10 mg/kg. The protocol: Mice were treated with vehicle or drugs, and virus yield was measured by bioluminescence imaging. VZV growth rate for individual mice (symbols) and the average for the group (bars) are shown in (A) and (B). […] The overall significance on day 10 post-inoculation (DPI 10) is p=0.0352 (one-way ANOVA). ** p<0.01 for OED-L-BHDU & POM-L-BHDU and (student's t test with Welch's correction). Cidofovir group (i.p.) has an average fold change of 2-5 on DPI 10. (B).

The test system of data set [4] is HSV-1. In words: Anti-HSV-1 activity in Vero cells. It counts as cell-based, herpes simplex virus. The protocol: Additionally, all synthesized compounds were also tested in vitro against herpes simplex viruses (HSV-1, oral herpes) in Vero cells, FIG. 8.
Data set [5] relates to Vero Cells.

“Also recorded” adds a separate entry of the source. Like-named read-outs stand apart in the source and are kept apart here. Bounds are passed on as bounds.

For `CCCCCCCCCCCCCCCCOCCCOP(=O)(O)OC[C@H]1OC[C@@H](n2cc(/C=C/Br)c(=O)[nH]c2=O)O1` [HDP-L-BHDU, hexadecyloxypropyl-L-BHDU], in data set [1], the “in vitro anti-VZV activity (in words)” value is “lower antiviral activity relative to L-BHDU; also recorded: lower in vitro activity than the parental molecule” and the EC50 was found to be 0.9 µM. This compound also yielded a CC50 in data set [2] of 10 µM.
Turning to `Nc1ccn(C[C@@H](CO)OCP(=O)(O)O)c(=O)n1` [Cidofovir, cidofovir, reference compound], in data set [3] (i.p., day 10 post-inoculation), the “average fold change on DPI 10” value is reported as 2-5 fold.
Regarding `Nc1nc2c(ncn2COCCO)c(=O)[nH]1` [acyclovir, reference compound], the EC50 in data set [4] (Human alphaherpesvirus 1, read-out: EC50 against HSV-1) was 0.0736 µM.
Consider `CC(C)OC(=O)OCOP(=O)(OCOC(=O)OC(C)C)OC[C@H]1OC[C@@H](n2cc(/C=C/Br)c(=O)[nH]c2=O)O1` [POC-L-BHDU, Bis (POC) prodrug L-BHDU], for which the “anti-HSV-1 activity (in words)” value in data set [4] is given as “good activity”. Moreover, the EC50 in data set [4] (read-out: EC50 against HSV-1) came out at 0.026 µM; in data set [1], 0.034 µM. Besides, the CC50 in data set [5] and in data set [2] was greater than 100 µM in each case. Moreover, the “in vivo antiviral activity against VZV (in words)” value in data set [3] is “ineffective”; in data set [3] (listed as POC (14)) it was “better in vitro and in vivo activity in comparison to L-BDHU”. Moreover, the “in vitro anti-VZV activity (in words)” value was “significant anti-VZV activity; also recorded: good antiviral efficacy” in data set [1]; “better in vitro and in vivo activity in comparison to L-BDHU” in data set [1] (listed as POC (14)). Besides, the “effect on cellular proliferation” value in data set [2] is reported as “did not affect cellular proliferation”.

The record behind these values is patent US11945833B2, “Prodrugs of L-BHDU and methods of treating viral infections” (priority 2021, dated 2024).
